Assay results published in patent US20220168430A1, “THERAPEUTIC METHODS FOR TREATING HEPATITIS B” (priority 2019, published 2022).
Like-named read-outs stand apart in the source and are kept apart here.

System: HBV rcDNA
Assay: Dual agent combination in HepDE19 cells, rcDNA by Quantigene 2.0 bDNA assay (Examples 5-8)
Assay type: cell-based, HBV; HepDE19 (HepG2 human hepatocarcinoma derived)
Conditions: Hepatitis B virus; for EC50: read-out: Avg. Inhibitor A EC50
Protocol: In vitro dual agent combination studies were conducted using the method of Prichard and Shipman 1990 (Prichard M N, Shipman C, Jr. 1990. Antiviral Res 14:181-205). The HepDE19 cell culture system is a HepG2 (human hepatocarcinoma) derived cell line that supports HBV DNA replication and cccDNA formation under control the control of a CMV Tet-off promoter system (Guo et al. 2007. J Virol 81:12472-84). HepDE19 (50,000 cells/well) were plated in 96 well collagen-coated tissue-culture treated microtiter plates in DMEM/F12 medium supplemented with 10% fetal bovine serum+1% penicillin-streptomycin with tetracycline (1 μg/mL) and incubated in a humidified incubator at 37° C. and 5% CO2 overnight. Next day, the cells were switched to fresh medium without tetracycline and incubated for 4 hrs at 37° C. and 5% CO2. The cells were switched to fresh medium and treated with inhibitor A and inhibitor B, at concentration range spanning their respective EC50 values. […] The two inhibitors were tested both singly as well as in combinations in a checkerboard fashion such that each concentration of inhibitor A was combined with each concentration of inhibitor B to determine their combination effects on inhibition of rcDNA production. There were four replicates of each concentration combination in each experiment. The plates were incubated for 7 days in a humidified incubator at 37° C. and 5% CO2. The level of rcDNA present in the wells was measured using a Quantigene 2.0 bDNA assay kit (Affymetrix, Santa Clara, Calif.) with HBV specific custom probe set (genotype D ayw) and according to the manufacturer's instructions and read using a luminescence plate reader and the relative luminescence units (RLU) data generated from each well was calculated as % inhibition of the untreated control wells and analyzed using the MacSynergy II program to determine whether the combinations were synergistic, additive or antagonistic using the interpretive guidelines established by Prichard and Shipman (Prichard M N, Shipman C, Jr. 1990. […] Each experiment was repeated at least three times and the averages and standard deviations of individual determinations was calculated to derive the conclusion. Concurrently, in each experiment, the effect of inhibitor combinations on cell viability was assessed using replicate plates in triplicates that were used to determine the ATP content as a measure of cell viability using the Cell-Titer Glo reagent (Promega, Madison, Wis.) as per the manufacturer's instructions.

Cn1cnc(COC(=O)N[C@H]2CCc3c(C(=O)Nc4ccc(F)c(Cl)c4)ccc(F)c32)n1 [Compound 1]
inhibition at 0.005 µM (HepDE19, Cmpd 1 0.005 μM, ETV μM by grid row: r7 0.0250, r8 0.0083, r9 0.0028, r10 0.0009, r11 0.0003, r12 0, HepDE19 cells, Expt 1, read-out: AVERAGE % INHIBITION, rcDNA): -5.55% | inhibition at 0.01 µM (HepDE19, Cmpd 1 0.010 μM, ETV μM by grid row: r7 0.0250, r8 0.0083, r9 0.0028, r10 0.0009, r11 0.0003, r12 0, HepDE19 cells, Expt 1, read-out: AVERAGE % INHIBITION, rcDNA): -2.14% | inhibition at 0.02 µM (HepDE19, Cmpd 1 0.020 μM, ETV μM by grid row: r7 0.0250, r8 0.0083, r9 0.0028, r10 0.0009, r11 0.0003, r12 0, HepDE19 cells, Expt 1, read-out: AVERAGE % INHIBITION, rcDNA): 20.8% | inhibition at 0.039 µM (HepDE19, Cmpd 1 0.039 μM, ETV μM by grid row: r7 0.0250, r8 0.0083, r9 0.0028, r10 0.0009, r11 0.0003, r12 0, HepDE19 cells, Expt 1, read-out: AVERAGE % INHIBITION, rcDNA): 28.3% | inhibition at 0.156 µM (HepDE19, Cmpd 1 0.156 μM, ETV μM by grid row: r7 0.0250, r8 0.0083, r9 0.0028, r10 0.0009, r11 0.0003, r12 0, HepDE19 cells, Expt 1, read-out: AVERAGE % INHIBITION, rcDNA): 82% | inhibition at 1.25 µM (HepDE19, Cmpd 1 1.25 μM, ETV μM by grid row: r7 0.0250, r8 0.0083, r9 0.0028, r10 0.0009, r11 0.0003, r12 0, HepDE19 cells, Expt 1, read-out: AVERAGE % INHIBITION, rcDNA): 98.9% | EC50 (HepDE19, Cmpd 1 in combination study with ETV, n = 3): 0.059 µM | EC50 (HepDE19, Cmpd 1 in combination study with SIRNA-NP, n = 3): 0.064 µM | EC50 (HepDE19, Cmpd 1 in combination study with TAF, n = 4): 0.074 µM | EC50 (HepDE19, Cmpd 1 in combination study with TDF, n = 3): 0.08 µM | inhibition at 0.005 µM (HepDE19, Expt 1 (with TDF), Compound 1 0.005 μM alone, read-out: ADDITIVE INHIBITION): -44.9% | inhibition at 0.005 µM (HepDE19, Expt 1 (with TDF), Compound 1 0.005 μM alone, read-out: AVERAGE % INHIBITION): -44.9% | inhibition at 0.01 µM (HepDE19, Expt 1 (with TDF), Compound 1 0.010 μM alone, read-out: ADDITIVE INHIBITION): -40.7% | inhibition at 0.01 µM (HepDE19, Expt 1 (with TDF), Compound 1 0.010 μM alone, read-out: AVERAGE % INHIBITION): -40.7% | inhibition at 0.02 µM (HepDE19, Expt 1 (with TDF), Compound 1 0.020 μM alone, read-out: ADDITIVE INHIBITION): -21.6% | inhibition at 0.02 µM (HepDE19, Expt 1 (with TDF), Compound 1 0.020 μM alone, read-out: AVERAGE % INHIBITION): -21.6% | inhibition at 0.039 µM (HepDE19, Expt 1 (with TDF), Compound 1 0.039 μM alone, read-out: ADDITIVE INHIBITION): 0.64% | inhibition at 0.039 µM (HepDE19, Expt 1 (with TDF), Compound 1 0.039 μM alone, read-out: AVERAGE % INHIBITION): 0.64% | inhibition at 0.156 µM (HepDE19, Expt 1 (with TDF), Compound 1 0.156 μM alone, read-out: ADDITIVE INHIBITION): 68.2% | inhibition at 0.156 µM (HepDE19, Expt 1 (with TDF), Compound 1 0.156 μM alone, read-out: AVERAGE % INHIBITION): 68.2% | inhibition at 1.25 µM (HepDE19, Expt 1 (with TDF), Compound 1 1.250 μM alone, read-out: ADDITIVE INHIBITION): 97.3% | inhibition at 1.25 µM (HepDE19, Expt 1 (with TDF), Compound 1 1.250 μM alone, read-out: AVERAGE % INHIBITION): 97.3% | inhibition at 0.007 µM (HepDE19, Expt 1, Cmpd 1 0.007 μM alone, read-out: AVERAGE % INHIBITION): -23.5% | inhibition at 0.067 µM (HepDE19, Expt 1, Cmpd 1 0.067 μM alone): 43.7% | inhibition at 0.2 µM (HepDE19, Expt 1, Cmpd 1 0.200 μM alone): 78.4% | inhibition at 0.6 µM (HepDE19, Expt 1, Cmpd 1 0.600 μM alone): 92.9% | inhibition at 0.005 µM (HepDE19, Expt 1, Compound 1 0.005 μM alone, read-out: AVERAGE % INHIBITION): -81.7% | inhibition at 0.01 µM (HepDE19, Expt 1, Compound 1 0.010 μM alone, read-out: AVERAGE % INHIBITION): -86.4% | inhibition at 0.02 µM (HepDE19, Expt 1, Compound 1 0.020 μM alone, read-out: AVERAGE % INHIBITION): -84.7% | inhibition at 0.039 µM (HepDE19, Expt 1, Compound 1 0.039 μM alone, read-out: AVERAGE % INHIBITION): -14.2% | inhibition at 0.156 µM (HepDE19, Expt 1, Compound 1 0.156 μM alone, read-out: AVERAGE % INHIBITION): 59.4% | inhibition at 1.25 µM (HepDE19, Expt 1, Compound 1 1.250 μM alone, read-out: AVERAGE % INHIBITION): 98.3% | inhibition at 0.007 µM (HepDE19, Expt 2 (with TDF), Compound 1 0.007 μM alone, read-out: AVERAGE % INHIBITION): -35.1% | inhibition at 0.067 µM (HepDE19, Expt 2 (with TDF), Compound 1 0.067 μM alone): 28.1% | inhibition at 0.2 µM (HepDE19, Expt 2 (with TDF), Compound 1 0.200 μM alone): 80.5% | inhibition at 0.6 µM (HepDE19, Expt 2 (with TDF), Compound 1 0.600 μM alone): 95.2% | inhibition at 0.005 µM (HepDE19, Expt 2, Cmpd 1 0.005 μM alone, read-out: AVERAGE % INHIBITION): 5.58% | inhibition at 0.01 µM (HepDE19, Expt 2, Cmpd 1 0.010 μM alone, read-out: AVERAGE % INHIBITION): -0.61% | inhibition at 0.02 µM (HepDE19, Expt 2, Cmpd 1 0.020 μM alone, read-out: AVERAGE % INHIBITION): 6.6% | inhibition at 0.039 µM (HepDE19, Expt 2, Cmpd 1 0.039 μM alone, read-out: AVERAGE % INHIBITION): 25.9% | inhibition at 0.156 µM (HepDE19, Expt 2, Cmpd 1 0.156 μM alone, read-out: AVERAGE % INHIBITION): 84.1% | inhibition at 1.25 µM (HepDE19, Expt 2, Cmpd 1 1.250 μM alone, read-out: AVERAGE % INHIBITION): 98.3%
